For one experiment, the target named is T1, human PRS protein (Homo sapiens, UniProt P07814).
T1 construct: to construct His-Avi-hEPRS (998-1512) expression plasmid; His tag (N); Avi tag (N); TEV cleavage site (ENLYFQ/GS, encoded by forward primer hEPRS-TEV-NheF) (N); made in house; host or cells: E. coli BL21(DE3)
T1 sequence (P07814 998-1512): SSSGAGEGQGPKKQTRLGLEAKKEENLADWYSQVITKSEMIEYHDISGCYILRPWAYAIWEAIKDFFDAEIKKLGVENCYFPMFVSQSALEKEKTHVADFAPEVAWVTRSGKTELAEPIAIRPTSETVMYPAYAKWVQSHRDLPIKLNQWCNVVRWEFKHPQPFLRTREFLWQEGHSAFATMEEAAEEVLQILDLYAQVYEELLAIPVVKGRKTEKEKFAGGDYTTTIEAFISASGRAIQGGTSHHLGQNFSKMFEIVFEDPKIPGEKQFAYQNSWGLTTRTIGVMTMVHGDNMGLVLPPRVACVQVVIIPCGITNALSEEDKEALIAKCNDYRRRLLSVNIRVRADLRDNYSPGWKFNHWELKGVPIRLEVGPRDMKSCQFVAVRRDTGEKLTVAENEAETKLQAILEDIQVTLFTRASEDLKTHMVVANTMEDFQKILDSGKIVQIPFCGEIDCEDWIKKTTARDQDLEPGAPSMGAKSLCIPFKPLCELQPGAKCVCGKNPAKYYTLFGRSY
Put plainly: PRS inhibitory activity (ATP/[32P]pyrophosphate exchange enzyme reaction). Format: biochemical. The conditions noted are these: 300 nM test compound; recombinant human PRS (EPRS 998-1512); read-out: inhibitory rate (%) of PRS. The protocol:
The PRS inhibitory activity of the compounds of the present invention was evaluated by the following method.
An expression plasmid of Catalytic Domain of human EPRS was obtained by PCR using human skeletal muscle cDNA Library (Takara Bio Inc.) as a template and 2 kinds of Primers 5′-[…]-3′ (hEPRS-TEV-NheF) (SEQ ID NO: 1) and 5′-[…]-3′ (hEPRS-St-Not-R) (SEQ ID NO: 2). PCR was performed using PrimeStar GXL DNA Polymerase (Takara Bio Inc.) and included (1) 98° C., 1 min, (2) cycles of 98° C., 10 sec, 65° C., 10 sec, 72° C., 1 min, and (3) reaction at 72° C., 1 min. This was cleaved with Nhe I and Not I (Takara Bio Inc.) and inserted using Ligation High (TOYOBO CO., LTD.) into the Nhe I/Not I site of pET21a (Novagen) with His-Avitag inserted thereinto. This was introduced into ECOS JM109 (NIPPON GENE CO., LTD.) to construct His-Avi-hEPRS (998-1512) expression plasmid.
Recombinant human PRS protein was prepared by transforming the His-Avi-hEPRS (998-1512) expression plasmid prepared above into ECOS Competent E. coli BL21(DE3) (NIPPON GENE CO., LTD.). Escherichia coli obtained by transformation was inoculated into 300 mL of LB medium (1% peptone, 0.5% yeast extract, 0.5% sodium chloride, 0.01% ampicillin) and cultured at 30° C. for 16 hr. The obtained culture medium was transferred into a jar culture tank charged with 6 L of the main fermentation medium (0.3% potassium dihydrogen phosphate, 0.6% disodium hydrogen phosphate, 0.1% ammonium chloride, 0.05% sodium chloride, 0.024% magnesium sulfate, 0.02% NEWPOL LB-625, 1.5% sorbitol, 1.5% casamino acid, 0.5% yeast extract, 0.01% ampicillin) and culturing was started at 37° C., quantity of airflow 5 L/min, stirring rotating speed 400 rpm. At the time point when the turbidity of the culture medium reached about 550 Klett units, the culture temperature was lowered to 16° C., isopropyl-β-D-thiogalactopyranoside (IPTG) was added to the final concentration 0.1 mM, and culturing was performed for another 16 hr to induce expression of human PRS. After completion of culturing, the culture medium was centrifuged at 5,000 rpm for 10 min. The obtained human PRS expressing Escherichia coli was suspended in a buffer containing 50 mM Tris-HCl (pH 8.0), 150 mM NaCl, 1 mM DTT, 5 U/ml Benzonase, 20 mM Imidazole and sonicated using Sonifier (BRANSON). The homogenate was centrifuged (33,000×G, 60 min, Beckman Coulter), the obtained supernatant was subjected to adsorption by passage through Ni-NTA Superflow (QIAGEN) column equilibrated in advance with 50 mM Tris-HCl (pH 8.0), 300 mM NaCl, 1 mM DTT, and elution was performed with a buffer containing 50 mM Tris-HCl (pH 8.0), 300 mM NaCl, 1 mM DTT, 250 mM Imidazole. Furthermore, gel filtration was performed using […] equilibrated in advance with a buffer containing 50 mM Tris-HCl (pH 8.0), 150 mM NaCl, 1 mM DTT, 10% glycerol to give purified human PRS protein. The protein concentration was measured using BCA Protein Assay Kit (PIERCE) and BSA as the standard.
A test compound was dissolved in 5 μL of an assay buffer (50 mM Tris-HCl (pH 7.5), 20 mM KCl, 1 mM DTT, 0.01% Tween 20) and incubated for 60 min with 5 μL of 40 nM human PRS protein dissolved in the assay buffer containing 40 mM MgCl2. An enzyme reaction of the human PRS protein was started by adding 10 μL of a substrate solution containing 300 μM ATP, 160 μM L-Proline, 400 μM pyrophosphate, [^32P]pyrophosphate (PerkinElmer, Waltham, Mass.) prepared to 1 MBq/mL. After incubation at room temperature for 30 min, the reaction was discontinued by adding 50 μL of discontinuation/washing solution (1M HCl, 200 mM sodium pyrophosphate) to the reaction mixture. The reaction solution was transferred to a filter plate (Merck Millipore, Billerica, Mass.) previously added with 200 μL of charcoal solution (0.5% HCl solution containing 10% charcoal (w/v)). […]

For experiment [1], the system named is human ovarian cancer cell A2780. Put plainly: proliferation inhibitory activity against A2780 cells (CellTiter-Glo). The format is cell-based. The settings on record: A2780, 72 h, 1 μM test compound, 3 days of culture, read-out: proliferation inhibitory rate (%) of A2780 cells. The procedure: The proliferation inhibitory activity of the compound of the present invention against human ovarian cancer cell A2780 was evaluated by the following method.
Human ovarian cancer cells A2780 were seeded in a 384 well culture plate at 1000 cells in 30 μL of medium per well by using RPMI-1640 medium (Wako Pure Chemical Industries, Ltd.) containing 10% fetal bovine serum and penicillin/streptomycin. The next day, 10 μL of RPMI-1640 medium containing the test compound was added to the cells. After 3 days of culture, 20 μL of CellTiter-Glo Luminescent Cell Viability Assay solution (Promega, Fitchburg, Wis., US) was added. The luminescence signal was measured using EnVision (PerkinElmer, Waltham, Mass., US) and the inhibitory rate (%) of the test compound was calculated with a well free of seeding of cell as 100% inhibition.

Regarding `Cn1cc(-c2cccc(CC(=O)Nc3cc(N4CC[C@@](C#N)(C5CC5)C4=O)cc(C(F)F)n3)c2)cn1` [Example 65, N-(4-((3S)-3-cyano-3-cyclopropyl-2-oxopyrrolidin-1-yl)-6-(difluoromethyl)pyridin-2-yl)-2-(3-(1-methyl-1H-pyrazol-4-yl)phenyl)acetamide], the inhibition at 0.3 µM on human PRS protein was found to be 95%. Besides, the inhibition at 1 µM in experiment [1] was 75%. Take `N#C[C@@]1(C2CC2)CCN(c2ccnc(NC(=O)Cc3cccc(-c4cnn(CC5CCC5)c4)c3)c2)C1=O` [Example 72, N-(4-((3S)-3-cyano-3-cyclopropyl-2-oxopyrrolidin-1-yl)pyridin-2-yl)-2-(3-(1-(cyclobutylmethyl)-1H-pyrazol-4-yl)phenyl)acetamide]: at human PRS protein, the inhibition at 0.3 µM amounted to 98%. Also, the inhibition at 1 µM in experiment [1] came out at 65%. As to `N#C[C@@]1(C2CC2)CCN(c2ccnc(NC(=O)Cc3cccc(-c4cnn(Cc5ccccc5)c4)c3)c2)C1=O` [Example 79, 2-(3-(1-benzyl-1H-pyrazol-4-yl)phenyl)-N-(4-((3S)-3-cyano-3-cyclopropyl-2-oxopyrrolidin-1-yl)pyridin-2-yl)acetamide], the inhibition at 0.3 µM at human PRS protein came to 100%. The inhibition at 1 µM in experiment [1] stood at 65%. `Cc1cc(N2CC[C@@](C#N)(C3CC3)C2=O)cc(NC(=O)Cc2cc(F)cc(-c3cnn(C)c3)c2)n1` [Example 52, N-(4-((3S)-3-cyano-3-cyclopropyl-2-oxopyrrolidin-1-yl)-6-methylpyridin-2-yl)-2-(3-fluoro-5-(1-methyl-1H-pyrazol-4-yl)phenyl)acetamide]: the inhibition at 0.3 µM on human PRS protein was 99%. The inhibition at 1 µM in experiment [1] turned out to be 97%. For `CC(C)(O)CCn1cc(-c2cccc(CC(=O)Nc3cc(N4CC[C@@](C#N)(C5CC5)C4=O)ccn3)c2)cn1` [Example 100, N-(4-((3S)-3-cyano-3-cyclopropyl-2-oxopyrrolidin-1-yl)pyridin-2-yl)-2-(3-(1-(3-hydroxy-3-methylbutyl)-1H-pyrazol-4-yl)phenyl)acetamide], the inhibition at 0.3 µM at human PRS protein is 101%. Further, the inhibition at 1 µM in experiment [1] was determined as 84%. As to `CC(C)(C)OC(=O)n1cc(-c2cccc(CC(=O)Nc3cc(N4CC[C@@](C#N)(C5CC5)C4=O)ccn3)c2)cn1` [Example 55, tert-butyl 4-(3-(2-((4-((3S)-3-cyano-3-cyclopropyl-2-oxopyrrolidin-1-yl)pyridin-2-yl)amino)-2-oxoethyl)phenyl)-1H-pyrazole-1-carboxylate], the inhibition at 0.3 µM on human PRS protein stood at 99%. Further, in experiment [1], the inhibition at 1 µM was found to be 67%.

In the case of `Cn1cc(-c2ccc(F)c(CC(=O)Nc3cc(N4CC[C@@](C#N)(C5CC5)C4=O)ccn3)c2)cn1` [Example 53, N-(4-((3S)-3-cyano-3-cyclopropyl-2-oxopyrrolidin-1-yl)pyridin-2-yl)-2-(2-fluoro-5-(1-methyl-1H-pyrazol-4-yl)phenyl)acetamide], at human PRS protein, the inhibition at 0.3 µM is 100%. In addition, the inhibition at 1 µM in experiment [1] came out at 82%. Regarding `Cn1cc(-c2cccc(CC(=O)Nc3cc(N4CC[C@@](C#N)(C5CC5)C4=O)cc(F)n3)c2)cn1` [Example 63, N-(4-((3S)-3-cyano-3-cyclopropyl-2-oxopyrrolidin-1-yl)-6-fluoropyridin-2-yl)-2-(3-(1-methyl-1H-pyrazol-4-yl)phenyl)acetamide], the inhibition at 0.3 µM on human PRS protein was 99%. Also, the inhibition at 1 µM in experiment [1] came to 88%. Turning to `CC1(Cn2cc(-c3cccc(CC(=O)Nc4cc(N5CC[C@@](C#N)(C6CC6)C5=O)ccn4)c3)cn2)COC1` [Example 77, N-(4-((3S)-3-cyano-3-cyclopropyl-2-oxopyrrolidin-1-yl)pyridin-2-yl)-2-(3-(1-((3-methyloxetan-3-yl)methyl)-1H-pyrazol-4-yl)phenyl)acetamide], the inhibition at 0.3 µM at human PRS protein turned out to be 98%. Moreover, the inhibition at 1 µM in experiment [1] was determined as 63%. For `N#CC1(C2CCC2)CCN(c2ccnc(NC(=O)Cc3cccc4ccccc34)c2)C1=O` (centres unmarked) [Example 33, N-(4-(3-cyano-3-cyclobutyl-2-oxopyrrolidin-1-yl)pyridin-2-yl)-2-(1-naphthyl)acetamide], the inhibition at 0.3 µM at human PRS protein turned out to be 80%. Take `N#C[C@@]1(C2CC2)CCN(c2ccnc(NC(=O)Cc3ccccc3Cl)c2)C1=O` [Example 5, 2-(2-chlorophenyl)-N-(4-((3S)-3-cyano-3-cyclopropyl-2-oxopyrrolidin-1-yl)pyridin-2-yl)acetamide]: the inhibition at 0.3 µM on human PRS protein turned out to be 62%. Take `N#C[C@@]1(C2CC2)CCN(c2ccnc(NC(=O)Cc3cccc(F)c3)c2)C1=O` [Example 13, N-(4-((3S)-3-cyano-3-cyclopropyl-2-oxopyrrolidin-1-yl)pyridin-2-yl)-2-(3-fluorophenyl)acetamide]: the inhibition at 0.3 µM at human PRS protein was determined as 89%. For `N#C[C@@]1(C2CC2)CCN(c2ccnc(NC(=O)Cc3ccccc3F)c2)C1=O` [Example 14, N-(4-((3S)-3-cyano-3-cyclopropyl-2-oxopyrrolidin-1-yl)pyridin-2-yl)-2-(2-fluorophenyl)acetamide], the inhibition at 0.3 µM at human PRS protein amounted to 70%. Turning to `N#C[C@@]1(C2CC2)CCN(c2ccnc(NC(=O)Cc3cccc(-c4cnn(CC(F)(F)C(F)(F)F)c4)c3)c2)C1=O` [Example 96, N-(4-((3S)-3-cyano-3-cyclopropyl-2-oxopyrrolidin-1-yl)pyridin-2-yl)-2-(3-(1-(2,2,3,3,3-pentafluoropropyl)-1H-pyrazol-4-yl)phenyl)acetamide], at human PRS protein, the inhibition at 0.3 µM stood at 96%.

For the origin of these results see patent US10800754B2, “Heterocyclic amide compound” (TAKEDA PHARMACEUTICAL COMPANY LIMITED, priority 2016, dated 2020).
